Patent publication US20030171544A1, “Alcohol dehydrogenase and use thereof” (DEGUSSA AG, priority 2001, published 2003)
Marks after values point to notes of the source that are not given here.

Tested on: alcohol dehydrogenase (ADHF1)
Test: Reduction of ketones with lyophilized recombinant ADHF1 crude extract, GC analysis
Assay type: biochemical, Pseudomonas fluorescens (DSM 50106)
Settings: for Conversion: Table 1, GC analysis, 6.4 μmol substrate, 1.25 mg enzyme crude extract, 0.1 M Tris pH 8.0, 20% (v/v) isopropanol, room temperature, time 20-21 h
Description: The activity of lyophilized alcohol dehydrogenase is determined using acetophenone as model substrate. The standardized reaction mixture (250 μl) contains 6.4 μmol of substrate dissolved in isopropanol, 1.25 mg of enzyme (crude extract) in 0.1 M Tris buffer (pH 8.0) and 20% (v/v) isopropanol as substrate for NADH-recycling dehydrogenase. The reactions are carried out at room temperature, unless explicitly stated otherwise. All values were determined three times. After the reaction has finished, the reaction mixture is extracted with twice the amount of chloroform and the organic phase is then dried over sodium sulfate. The reaction products were analyzed isothermally at 120° C. by GC measurements (Shimadzu GC 14A, Tokyo, flame ionization detector, integrator C5RA) using a chiral column (heptakis (2,6-O-methyl-3-O-pentyl)-β-cyclodextrin, 25m×0.25mm ID, Macherey & Nagel, Düren). The retention times are 1.55 min for acetophenone, 2.77 min for (R)-α-phenylethanol and 2.99 min for (S)-α-phenylethanol. The absolute configuration was determined by using commercial standards. Further GC analyses were carried out at a temperature rising from 90° C. to 120° C. at a rate of 5° C./min. Here the retention times were 0.95 min for cyclopentanone, 1.37 min for cyclopentanol, 2.85 min for cycloheptanone, 4.29 min for cycloheptanol, 1.42 min for cyclohexanone and 2.12 min for cyclohexanol.

| Structure (SMILES) | Conversion | yield of (R)-α-phenylethanol (conversion of acetophenone by ADHF1) [%] |
| --- | --- | --- |
| O=C1CCCCCC1 [Cycloheptanone] | 51% |  |
| O=C1CCCCC1 [Cyclohexanone] | 100% |  |
| O=C1CCCC1 [Cyclopentanone] | 53% |  |
| CC(=O)c1ccccc1 [Substrate 1, acetophenone] | 95^b % | 95 |
